Experimental data as given in US9481670B2, “Triazine compounds” (Sphaera Pharma PTE. Ltd., priority 2011, dated 2016).

Biological target: T1, PI3K alpha (Homo sapiens, UniProt P42336)
T1 construct: purchased Millipore Upstate
Assay: P110 Alpha TR-FRET Assay (PI3K alpha kinase assay, HTRF Transcreener ADP Assay)
Assay type: biochemical
Conditions: PI3K (WT)
How it was run: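 Enzyme (50 ng) and compound were preincubated 20 min in HEPES pH 7.5 buffer containing MgCl2, DTT and vanadate before 10 μM ATP plus 5 μM PIP2 substrate was added for 20 min. ADP produced was quantified by TR-FRET (ADP-d2, anti-ADP cryptate, 1 h).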

T1 sequence (P42336 whole entry): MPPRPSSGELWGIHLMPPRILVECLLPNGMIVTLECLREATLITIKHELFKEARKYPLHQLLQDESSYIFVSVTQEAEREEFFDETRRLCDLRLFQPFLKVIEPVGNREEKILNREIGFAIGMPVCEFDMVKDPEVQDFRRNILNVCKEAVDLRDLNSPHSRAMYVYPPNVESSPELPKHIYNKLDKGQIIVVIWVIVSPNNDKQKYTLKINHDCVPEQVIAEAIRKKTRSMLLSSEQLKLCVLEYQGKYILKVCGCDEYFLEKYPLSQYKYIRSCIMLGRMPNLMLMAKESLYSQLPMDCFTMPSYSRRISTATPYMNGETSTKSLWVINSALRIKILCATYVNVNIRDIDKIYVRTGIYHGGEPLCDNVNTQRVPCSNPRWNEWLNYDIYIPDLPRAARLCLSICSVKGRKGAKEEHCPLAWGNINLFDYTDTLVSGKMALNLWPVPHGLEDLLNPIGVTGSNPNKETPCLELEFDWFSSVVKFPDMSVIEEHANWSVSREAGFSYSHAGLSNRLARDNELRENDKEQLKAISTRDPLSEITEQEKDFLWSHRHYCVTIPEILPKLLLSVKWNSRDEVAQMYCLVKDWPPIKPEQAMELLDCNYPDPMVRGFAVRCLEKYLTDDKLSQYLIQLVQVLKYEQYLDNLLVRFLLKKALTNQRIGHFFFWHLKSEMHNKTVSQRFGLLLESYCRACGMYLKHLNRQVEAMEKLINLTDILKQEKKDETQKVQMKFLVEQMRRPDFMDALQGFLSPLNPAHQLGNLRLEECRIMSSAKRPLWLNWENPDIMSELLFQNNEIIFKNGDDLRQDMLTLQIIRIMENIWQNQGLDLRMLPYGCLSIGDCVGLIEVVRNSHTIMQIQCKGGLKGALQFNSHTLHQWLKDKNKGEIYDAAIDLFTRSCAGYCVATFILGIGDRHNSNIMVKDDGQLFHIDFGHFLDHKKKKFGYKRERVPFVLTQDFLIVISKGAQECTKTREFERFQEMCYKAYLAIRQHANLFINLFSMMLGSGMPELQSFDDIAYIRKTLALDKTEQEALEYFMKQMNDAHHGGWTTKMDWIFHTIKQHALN
T1 sequence (P27986 whole entry partner): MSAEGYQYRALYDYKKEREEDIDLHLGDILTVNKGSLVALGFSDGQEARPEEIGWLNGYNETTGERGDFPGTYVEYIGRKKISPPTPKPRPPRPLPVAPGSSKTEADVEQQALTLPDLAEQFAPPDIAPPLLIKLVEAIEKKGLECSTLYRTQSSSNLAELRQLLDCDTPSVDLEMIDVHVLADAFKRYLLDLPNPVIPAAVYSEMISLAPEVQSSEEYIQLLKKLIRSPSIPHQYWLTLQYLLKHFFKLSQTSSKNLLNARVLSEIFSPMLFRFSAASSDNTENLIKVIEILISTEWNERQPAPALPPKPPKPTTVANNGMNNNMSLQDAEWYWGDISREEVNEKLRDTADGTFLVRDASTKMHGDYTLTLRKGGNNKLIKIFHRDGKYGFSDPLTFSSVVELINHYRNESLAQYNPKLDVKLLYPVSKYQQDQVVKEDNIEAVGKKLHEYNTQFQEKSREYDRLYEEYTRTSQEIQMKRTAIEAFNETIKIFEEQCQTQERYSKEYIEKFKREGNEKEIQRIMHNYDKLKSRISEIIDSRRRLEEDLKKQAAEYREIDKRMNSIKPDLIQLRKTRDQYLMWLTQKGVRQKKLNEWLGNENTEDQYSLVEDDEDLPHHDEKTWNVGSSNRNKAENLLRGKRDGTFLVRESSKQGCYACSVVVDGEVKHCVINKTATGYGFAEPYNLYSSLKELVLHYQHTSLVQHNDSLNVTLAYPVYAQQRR

## Nc1nc(-c2cccc(O)c2)nc(N2CCOCC2)n1 [Compound 1139, 3-8-[4-3-amino-6-5-(morpholin-4-yl)-1,3,5-triazin-2-yl]phenol]
  IC50: < 5 µM

## COC1CCN(C(=O)c2cccc(Nc3nc(-c4cccc5[nH]ncc45)nc(N4CCOCC4)n3)c2)CC1 [Compound 1140, (3-((4-(1H-indazol-4-yl)-6-morpholino-1,3,5-triazin-2-yl)amino)phenyl)(4-methoxypiperidin-1-yl)methanone]
  IC50: < 5 µM

## CN(C)C(=O)CNc1nc(-c2cccc(C#N)c2)nc(N2CCOCC2)n1 [Compound 1141, 2-((4-(3-cyanophenyl)-6-morpholino-1,3,5-triazin-2-yl)amino)-N,N-dimethylacetamide]
  IC50: > 5 µM

## CNC(=O)[C@H]1CC[C@H](Oc2nc(-c3cccc4[nH]ncc34)nc(N3CCOCC3)n2)CC1 [Compound 1142, (1r,4r)-4-21-{[4-1-(1H-indazol-4-yl)-6-5-(morpholin-4-yl)-1,3,5-triazin-2-yl]oxy}-N-methylcyclohexane-1-carboxamide]
  IC50: < 5 µM

## CN(C)C(=O)[C@H]1CC[C@@H](Oc2nc(-c3cccc4[nH]ncc34)nc(N3CCOCC3)n2)CC1 [Compound 1143, (1s,4s)-4-21-{[4-1-(1H-indazol-4-yl)-6-5-(morpholin-4-yl)-1,3,5-triazin-2-yl]oxy}-N,N-dimethylcyclohexane-1-carboxamide]
  IC50: < 5 µM

## CN(C)C(=O)CNc1nc(-c2ccc(O)nc2)nc(N2CCOCC2)n1 [Compound 1145, 2-((4-(6-hydroxypyridin-3-yl)-6-morpholino-1,3,5-triazin-2-yl)amino)-N,N-dimethylacetamide]
  IC50: < 5 µM

## CS(=O)(=O)Nc1cccc(-c2nc(NCC(=O)O)nc(N3CCOCC3)n2)c1 [Compound 1146, 2-((4-(3-(methylsulfonamido)phenyl)-6-morpholino-1,3,5-triazin-2-yl)amino)acetic acid]
  IC50: > 5 µM

## CN(C)C(=O)NC(C)(C)COc1nc(-c2cccc3[nH]ncc23)nc(N2CCOCC2)n1 [Compound 1147, 1-(1-14-{[4-1-(1H-indazol-4-yl)-6-5-(morpholin-4-yl)-1,3,5-triazin-2-yl]oxy}-2-15-methylpropan-2-yl)-3,3-dimethylurea]
  IC50: < 5 µM

## CCN1CCC(Oc2nc(-c3cccc4[nH]ncc34)nc(N3CCOCC3)n2)CC1 [Compound 1149, 4-7-{4-3-[(1-25-ethylpiperidin-4-yl)oxy]-6-5-(morpholin-4-yl)-1,3,5-triazin-2-yl}-1H-indazole]
  IC50: < 5 µM

## CN(C)C(=O)CNc1nc(-c2cncc(O)c2)nc(N2CCOCC2)n1 [Compound 1150, 2-((4-(5-hydroxypyridin-3-yl)-6-morpholino-1,3,5-triazin-2-yl)amino)-N,N-dimethylacetamide]
  IC50: < 5 µM

## c1cc(-c2nc(OC3CCNCC3)nc(N3CCOCC3)n2)c2cn[nH]c2c1 [Compound 1151, 4-7-[4-5-(morpholin-4-yl)-6-3-(piperidin-4-yloxy)-1,3,5-triazin-2-yl]-1H-indazole]
  IC50: < 5 µM

## N[C@H]1CC[C@H](Oc2nc(-c3cccc4[nH]ncc34)nc(N3CCOCC3)n2)CC1 [Compound 1152, (1r,4r)-4-9-{[4-1-(1H-indazol-4-yl)-6-5-(morpholin-4-yl)-1,3,5-triazin-2-yl]oxy}cyclohexan-1-amine]
  IC50: < 5 µM

## O=C(O)C1(Nc2nc(-c3cccc(O)c3)nc(N3CCOCC3)n2)CCCC1 [Compound 1153, 1-((4-(3-hydroxyphenyl)-6-morpholino-1,3,5-triazin-2-yl)amino)cyclopentanecarboxylic acid]
  IC50: < 5 µM

## NC(=O)C1CN(C(=O)c2cccc(Nc3nc(-c4cccc5[nH]ncc45)nc(N4CCOCC4)n3)c2)C1 [Compound 1154, 1-(3-((4-(1H-indazol-4-yl)-6-morpholino-1,3,5-triazin-2-yl)amino)benzoyl)azetidine-3-carboxamide]
  IC50: < 5 µM

## CC(C)(CO)Nc1nc(-c2cccc(O)c2)nc(N2CCOCC2)n1 [Compound 1155, 3-6-{4-3-[(1-hydroxy-2-methylpropan-2-yl)amino]-6-5-(morpholin-4-yl)-1,3,5-triazin-2-yl}phenol]
  IC50: < 5 µM

## COc1ccc(F)c(-c2nc(NCC(=O)O)nc(N3CCOCC3)n2)c1 [Compound 1156, 2-((4-(2-fluoro-5-methoxyphenyl)-6-morpholino-1,3,5-triazin-2-yl)amino)acetic acid]
  IC50: > 5 µM

## O=C(NC1CCNCC1)c1cccc(Nc2nc(-c3cccc4[nH]ncc34)nc(N3CCOCC3)n2)c1 [Compound 1157, 3-((4-(1H-indazol-4-yl)-6-morpholino-1,3,5-triazin-2-yl)amino)-N-(piperidin-4-yl)benzamide]
  IC50: < 5 µM

## NC(=O)c1sccc1Nc1nc(-c2cccc3[nH]ncc23)nc(N2CCOCC2)n1 [Compound 1158, 3-((4-(1H-indazol-4-yl)-6-morpholino-1,3,5-triazin-2-yl)amino)thiophene-2-carboxamide]
  IC50: < 5 µM

## Oc1cccc(-c2nc(N3CCOCC3)nc(N3CCOCC3)n2)c1 [Compound 1160, 3-6-[4-1,6-2-bis(morpholin-4-yl)-1,3,5-triazin-2-yl]phenol]
  IC50: < 5 µM

## O=C(O)CNc1nc(-c2cccc(C(=O)O)c2)nc(N2CCOCC2)n1 [Compound 1161, 3-6-{4-1-[(carboxymethyl)amino]-6-2-(morpholin-4-yl)-1,3,5-triazin-2-yl}benzoic acid]
  IC50: > 5 µM

## Nc1nc(-c2ccccc2)nc(N2CCOCC2)n1 [Compound 1162, 4-0-(morpholin-4-yl)-6-4-phenyl-1,3,5-triazin-2-amine]
  IC50: > 5 µM

## O=C1CN(C(=O)c2cccc(Nc3nc(-c4cccc5[nH]ncc45)nc(N4CCOCC4)n3)c2)CCN1 [Compound 1163, 4-(3-((4-(1H-indazol-4-yl)-6-morpholino-1,3,5-triazin-2-yl)amino)benzoyl)piperazin-2-one]
  IC50: < 5 µM

## COC1CN(C(=O)c2cccc(Nc3nc(-c4cccc5[nH]ncc45)nc(N4CCOCC4)n3)c2)C1 [Compound 1164, (3-((4-(1H-indazol-4-yl)-6-morpholino-1,3,5-triazin-2-yl)amino)phenyl)(3-methoxyazetidin-1-yl)methanone]
  IC50: < 5 µM

## C[C@H](Nc1nc(-c2ccc(N)nc2)nc(N2CCOCC2)n1)C(=O)N(C)C [Compound 1165, 2-((4-(6-aminopyridin-3-yl)-6-morpholino-1,3,5-triazin-2-yl)amino)-N,N-dimethylpropanamide]
  IC50: < 5 µM

## c1ccc(CSc2nc(-c3cccc4[nH]ncc34)nc(N3CCOCC3)n2)cc1 [Compound 1166, 4-(4-(benzylthio)-6-(1H-indazol-4-yl)-1,3,5-triazin-2-yl)morpholine]
  IC50: < 5 µM

## CN(C)C(=O)CNc1nc(-c2cccc(O)c2)nc(N2CCOCC2)n1 [Compound 1167, 2-((4-(3-hydroxyphenyl)-6-morpholino-1,3,5-triazin-2-yl)amino)-N,N-dimethylacetamide]
  IC50: < 5 µM

## CNC(=O)CNc1nc(-c2cccc(O)c2)nc(N2CCOCC2)n1 [Compound 1168, 2-((4-(3-hydroxyphenyl)-6-morpholino-1,3,5-triazin-2-yl)amino)-N-methylacetamide]
  IC50: < 5 µM

## O=C(O)CNc1nc(-c2cccc([N+](=O)[O-])c2)nc(N2CCOCC2)n1 [Compound 1169, 2-((4-morpholino-6-(3-nitrophenyl)-1,3,5-triazin-2-yl)amino)acetic acid]
  IC50: > 5 µM

## O=C(c1cccc(Nc2nc(-c3cccc4[nH]ncc34)nc(N3CCOCC3)n2)c1)N1CCNCC1 [Compound 1171, (3-((4-(1H-indazol-4-yl)-6-morpholino-1,3,5-triazin-2-yl)amino)phenyl)(piperazin-1-yl)methanone]
  IC50: < 5 µM

## CN1CCN(C(=O)c2cccc(Nc3nc(-c4cccc5[nH]ncc45)nc(N4CCOCC4)n3)c2)CC1 [Compound 1172, (3-((4-(1H-indazol-4-yl)-6-morpholino-1,3,5-triazin-2-yl)amino)phenyl)(4-methylpiperazin-1-yl)methanone]
  IC50: < 5 µM

## O=C(c1cccc(Nc2nc(-c3cccc4[nH]ncc34)nc(N3CCOCC3)n2)c1)N1CCOCC1 [Compound 1173, (3-((4-(1H-indazol-4-yl)-6-morpholino-1,3,5-triazin-2-yl)amino)phenyl)(morpholino)methanone]
  IC50: < 5 µM

## CCOc1ccc(NC(=O)C2CCN(c3nc(-c4cccc5[nH]ncc45)nc(N4CCOCC4)n3)C2)cc1 (centres unmarked) [Compound 1174, N-(4-23-ethoxyphenyl)-1-12-[4-1-(1H-indazol-4-yl)-6-5-(morpholin-4-yl)-1,3,5-triazin-2-yl]pyrrolidine-3-carboxamide]
  IC50: < 5 µM

## CC(C)C(Nc1nc(-c2cccc(O)c2)nc(N2CCOCC2)n1)C(=O)O (centres unmarked) [Compound 1175, 2-((4-(3-hydroxyphenyl)-6-morpholino-1,3,5-triazin-2-yl)amino)-3-methylbutanoic acid]
  IC50: < 5 µM

## O=C(O)CNc1nc(-c2ccc(O)nc2)nc(N2CCOCC2)n1 [Compound 1176, 2-((4-(6-hydroxypyridin-3-yl)-6-morpholino-1,3,5-triazin-2-yl)amino)acetic acid]
  IC50: > 5 µM

## CNC(=O)c1ccc(C)c(Nc2nc(-c3cccc4[nH]ncc34)nc(N3CCOCC3)n2)c1 [Compound 1177, 3-((4-(1H-indazol-4-yl)-6-morpholino-1,3,5-triazin-2-yl)amino)-N,4-dimethylbenzamide]
  IC50: < 5 µM

## Cc1ccc(C(=O)N(C)C)cc1Nc1nc(-c2cccc3[nH]ncc23)nc(N2CCOCC2)n1 [Compound 1178, 3-((4-(1H-indazol-4-yl)-6-morpholino-1,3,5-triazin-2-yl)amino)-N,N,4-trimethylbenzamide]
  IC50: < 5 µM

## O=C(O)CNc1nc(-c2ccc(F)nc2)nc(N2CCOCC2)n1 [Compound 1179, 2-((4-(6-fluoropyridin-3-yl)-6-morpholino-1,3,5-triazin-2-yl)amino)acetic acid]
  IC50: > 5 µM

## CN(C)C(=O)N1CCN(Cc2nc(-c3cccc4[nH]ncc34)nc(N3CCOCC3)n2)CC1 [Compound 1180, 4-((4-(1H-1-indazol-4-yl)-6-morpholino-1,3,5-triazin-2-yl)methyl)-N,N-dimethylpiperazine-1-carboxamide]
  IC50: < 5 µM
